Measured values as given in patent US20150051212A1, “Compositions And Methods For Inhibiting Drusen” (Regenerative Research Foundation, priority 2012, published 2015).

How the values were obtained:
[1] = O'Hare et al. 2005 Cancer Cell; cited from earlier work
[2] = tested on: drusen-associated protein transcripts; assay: Reduced drusen expression: qPCR of drusen-associated protein transcripts in stressed RPE; type: cell-based, human; settings: FIG. 4
Procedure: RNA is isolated from the RPE cells at the end of the 24 hour rest period, according to the protocol in the Qiagen RNeasy Micro/Mini Kits. Once isolated, the RNA is converted into cDNA using a high-capacity RNA to cDNA conversion kit (Applied Biosystems). The resulting cDNA is then used in a qPCR assay, to quantitate expression of various drusen-associated genes, including genes encoding: αA-crystallin, αB-crystallin, βB1-crystallin, βB2-crystallin, βs-crystallin, αA4-crystallin, APP, APOE, APOJ, BACE-1, PS1, VEGF, VEGF R1, VEGF R2, PEDF, CC9, serum amyloid P, TIMP3, vitronectin, and H2AE. The expression level of one or more housekeeping genes, such as ribosomal S18 and GAPDH, is also quantitated. Forward and reverse PCR primers having the nucleotide sequences shown in Table 2, below, may be used with a SYBR green reporter from Applied Biosystems.

RPESC-derived RPE cells [3] = assay: Restored resistance: transepithelial resistance of RPESC-derived RPE after oxidative stress; type: cell-based, human; settings: oxidative stress by TBHP; FIG. 3
Description: The ability of a test substance to restore transepithelial resistance may also be determined in the RPE cell-based assay. RPE cells are a tight junctioned epithelia and compromised epithelial integrity is a hallmark of RPE-associated diseases, such as, e.g., dry AMD.
Restored resistance. Healthy RPE form tight functioned epithelia layers with high electrical resistance. Compromising the integrity of these layers decreases the resistance and is indicative of a diseased state, such as dry or other forms of AMD.
Preferably, each well of primary human RPE cells has a resistance greater than 200 Ω·cm^2 before beginning the experiment. Resistance of RPE treated with a test compound is measured again, after oxidative stress, and compared to the resistance in untreated RPE subjected to the same oxidative stress procedure.

RPESC-derived RPE cells [4] = assay: Restored viability: LDH cytotoxicity assay in stressed RPESC-derived RPE

Cc1cn(-c2cc(NC(=O)c3ccc(C)c(Nc4nccc(-c5cccnc5)n4)c3)cc(C(F)(F)F)c2)cn1 [AMN107]
potency relative to imatinib mesylate [1]: 20 fold

COc1cc(Nc2c(C#N)cnc3cc(OCCCN4CCN(C)CC4)c(OC)cc23)c(Cl)cc1Cl [Bosutinib]
effect on TBHP-induced up-regulation of drusen-associated protein transcripts [2]: attenuates TBHP-induced up-regulation of drusen-associated protein transcripts

Cc1ccc(NC(=O)c2ccc(CN3CCN(C)CC3)cc2)cc1Nc1nccc(-c2cccnc2)n1 [Gleevec, 4-[(4-methylpiperazin-1-yl)methyl]-N-(4-methyl-3-{[4-(pyridin-3-yl)pyrimidin-2-yl]amino}phenyl)benzamide]
effect on decrease in transepithelial resistance after oxidative stress (RPESC-derived RPE cells [3]): attenuate the decrease in transepithelial resistance
effect on TBHP-induced up-regulation of drusen-associated protein transcripts [2]: attenuates TBHP-induced up-regulation of drusen-associated protein transcripts
cells viability restored compared to untreated controls (RPESC-derived RPE cells [4]; 1 µM): 100%
cell death in treated cells (RPESC-derived RPE cells [4]; 1 μM, 100% cell death in untreated controls): 0%

Ponatinib
reduction in cell death compared to the cell lysis control (RPESC-derived RPE cells [4]; 500 nM): about 80%
effect on cytotoxicity (RPESC-derived RPE cells [4]; 1 μM, FIG. 2): no effect on cytotoxicity
